Test results published in patent publication US20060240011A1, “Use of nf-kappa b inhibitors for the treatment of mastitis” (priority 2002, published 2006).
“Also recorded” adds a separate entry of the source.

Tested on: NF-κB
Test: NF-κB electrophoretic mobility shift assay (EMSA) on cultured, treated milk cells from chronic mastitis-affected cows
Assay type: cell-based, Holstein-Friesian cows
Conditions: protein extraction 3 hours after treatment, versus untreated cells
Protocol: Isolated milk cells were centrifuged for 10 minutes at 300 g and the pellet was resuspended in 600 μl lysis buffer (0.1% nonidet P-40; 10 mM Tris HCl, pH 7.4; 10 mM NaCl; 3 mM MgCl2; 1 mM EDTA; 2 mM orthovanadate; 1 mM diisopropyl fluorophosphates (DFP); 10 μg/ml leupeptin; 10 μg/ml aprotinin). The cells were vortexed 15 seconds, kept on ice for 5 minutes, and centrifuged for 10 minutes at 300 g. The resulting pellet was resuspended in a KCl buffer (10 mM Hepes, pH 7.4; 400 mM KCl; 10% Glycerol; 2 mM EDTA; 1 mM Ethylene glycol-bis[β-aminoethyl ether]-N, N,N′N′-tetraacetic acid (EGTA); 1% nonidet P-40, 1 mM dithiothreitol (DTT); 2 mM orthovanadate; 10 μg/ml leupeptin; 10 μg/ml aprotinin; 1 mM DFP) and kept at 4° C. for 10 minutes before centrifugation for 15 minutes at 12,000 g. The supernatant was diluted three times and stored at −80° C. until use.
Binding reactions were performed for 30 minutes at room temperature with 5 μg of total protein extracts in 20 mM Hepes (pH 7.9), 10 mM KCl, 0.2 mM EDTA, 20% (v/v) glycerol, 1% (w/v) acetylated bovine serum albumin, 3 μg of poly(dI-dC) (Amersham Pharmacia Biotech, Aylesbury, U.K.), 1 mM DTT (dithiothreitol), 1 mM phenylmethylsulfonyl fluoride, and 100,000 cpm of ^32P-labeled double-stranded oligonucleotide probes. Probes were prepared by annealing the appropriate single-stranded oligonucleotides (Eurogentech, Liège, Belgium) at 65° C. for 10 minutes in 10 mM Tris, 1 mM EDTA, and 10 mM NaCl, followed by slow cooling to room temperature. The probes were labeled by end-filling with the Klenow fragment of E. coli DNA polymerase I (Roche, Mannheim, Germany), with [^32P]dATP and [^32P]dCTP (Dupont-New England Nuclear, Les Ulis, Fance). Labeled probes were purified by spin chromatography on Sephadex G-25 columns (Roche). […] The amount of specific complexes was determined by photodensitometry of the autoradiography. […] The NF-κB activity was assessed by photodensitometry of the specific bands. […]

Row | Structure (SMILES) | NF-κB activity (DNA-binding activity by EMSA, photodensitometry) (15d-PGJ2 at 40 μM, 50 μM, 60 μM and 80 μM) | NF-κB activity (DNA-binding activity by EMSA, photodensitometry) (gliotoxine at 1 μl/ml) | NF-κB activity (DNA-binding activity by EMSA, photodensitometry) (gliotoxine at 1 μl/ml, listed as gliotoxine)
1 | CCCCCC=CC=C1C(=O)C=C[C@@H]1CC=CCCCC(=O)O [15d-PGJ2, 15-deoxy-Δ.12,14-prostaglandin J2] | reduced NF-κB activity; also recorded: inhibit NF-κB activation |  | 
2 | CN1C(=O)[C@]23CC4=CC=C[C@H](O)[C@H]4N2C(=O)[C@@]1(CO)SS3 [glyotoxine, gliotoxin] |  | reduced NF-κB activity | inhibit NF-κB activation
